This is an account of results in patent US10570179B2, “Substituted urea depsipeptide analogs as activators of the CLPP endopeptidase” (priority 2016, dated 2020).

The IC50 is the concentration that gives 50% inhibition. A low value points to inhibition by little substance.

Numbered stars: 1 amine (or outer) side, 2 acyl side, 3 side chain; on linkers, the order of the positions; unused ones are H or OH. Bridge positions count the residues as written; N and C are the ends. Square brackets hold non-standard residues; d marks the D form. Peptide text beside a SMILES is read from it. * marks the point of attachment. Phe(3-CF3) = N[C@@H](Cc1cccc(C(F)(F)F)c1)C(=O)O; Piperazine(2S-CO,4-Me) = CN1CCN[C@H](C(=O)O)C1; NH(1,3-benzodioxol-5-yl) = c1cc2c(cc1N*)OCO2; Phe(3-OMe) = COc1cccc(C[C@H](N)C(=O)O)c1; Morpholine(3S-CO) = O=C(O)[C@@H]1COCCN1; Phe(3-Me) = Cc1cccc(C[C@H](N)C(=O)O)c1; X4 = O=C1CN([*:1])[C@H](C(=O)[*:2])CN1; NH(4-Cl-2-F-phenyl) = Fc1cc(Cl)ccc1N*; Pro(4R-Me) = C[C@H]1CN[C@H](C(=O)O)C1; Hyp = O=C(O)[C@@H]1C[C@@H](O)CN1; NH(4-Et-phenyl) = CCc1ccc(N*)cc1; aThr = C[C@H](O)[C@H](N)C(=O)O; Pip = O=C(O)[C@@H]1CCCCN1; X3 = c1cc2c(cc1N*)OCCO2; CO = O=C([*:1])[*:2]

Series [1] concerns S. aureus ΔClpP. Put plainly: Minimal inhibitory concentration, microbroth dilution. It counts as cell-based, Staphylococcus aureus. The note with it: MIC; ClpP inactivated. The procedure, abridged:
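Compound was diluted twofold in the appropriate broth. Bacterial suspension (approx. 10^5 cfu/mL) was then added in equal volume, giving a maximum test concentration of 200 μM. After aerobic overnight incubation at 37 °C, wells were inspected visually for growth.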
For orientation: In broth dilution the organism is exposed to a series of concentrations in liquid medium.

Series [2] can be described thus: Plasma protein binding, rapid equilibrium dialysis. Format: in vitro ADME, human. To be noted: human, 4 h, 10 μM, pH 7.4. In short, it runs like this:
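Compound spiked at 10 μM (0.1% DMSO) into human plasma, dialysed against DPBS pH 7.4 across 8 K MWCO RED membrane for 4 h at 37 °C with shaking. Both chambers quantified by LC-MS against warfarin internal standard; % free = buffer/plasma concentration ×100, % bound = 100 − % free.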

Series [3] deals with T1, Sa-ClpP (Staphylococcus aureus, UniProt Q2G036).
T1 construct: made in house; host or cells: E. coli BL21 (DE3)
T1 sequence (Q2G036 whole entry): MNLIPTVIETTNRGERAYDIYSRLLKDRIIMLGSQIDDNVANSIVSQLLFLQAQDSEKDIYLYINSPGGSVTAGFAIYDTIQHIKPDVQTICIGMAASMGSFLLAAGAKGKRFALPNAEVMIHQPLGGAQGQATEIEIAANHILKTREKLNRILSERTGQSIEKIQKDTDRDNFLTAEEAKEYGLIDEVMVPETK
Put plainly: ADEP displacement fluorescence polarization assay. It counts as binding, S. aureus. To be noted: displacement of FP probe ADEP 2591 from Sa-ClpP. As to the method:
A fluorescence polarization (FP) assay was used to determine the activity of the disclosed compounds in displacing an ADEP analogue from ClpP. Briefly, the assay was performed in black 384 well, flat bottom, low volume plates (Greiner Bio-One, Monroe, N.C., catalog #784076). 20 μL of a pre-equilibrated (1 hr, room temperature) master mix (15 μM Sa-ClpP, 2% DMSO (v/v) and 50 nM FP probe in TrisHCl, pH 8.0)) was pipetted into each well using a Well-Mate (Thermo Scientific, Waltham, Mass.). Sa-ClpP was prepared as described above for the ClpP activation assay. The FP probe was ADEP 2591 (structure shown above). The ADEP 2591 comprises a TAMRA fluorophore linked to a core based on modified ADEP 2378 via a short alkyl linker. Using pin transfer, approximately 0.4 μL (2% v/v DMSO) of each compound or control was added per well. After addition of compounds and controls, plates were allowed to incubate for an additional 120 minutes at room temperature. All assays were performed in triplicate. Polarization was monitored using an EnVision Multilabel reader (Perkin-Elmer, Waltham, Mass.) by exciting the FP probe at 530±25 nm, and monitoring fluorescence intensity of both parallel and perpendicular polarized light at 579±25 nm. Readout was in millipolarization units (mP).
Signal gain and G factors were determined in wells containing 200 μM ADEP 2378, which had been previously verified (data not shown) as containing completely unbound ADEP 2591. Data collected was normalized to values obtained from positive (200 μM ADEP 2378) or negative (DMSO) controls. Curves were fit with non-linear regression using the equation “log [inhibitor] vs. Response-variable slope (four parameters)-symmetrical” in the program Prism 6 (GraphPad Software, La Jolla, Calif. USA, www.graphpad.com). The structures for ADEP 2378 and ADEP 2591 are shown above. ADEP 2378 is (E)-N—((S)-1-(((2R,6S,8aS,14aS,20S,23aS)-2,6-dimethyl-5,8,14,19,23-pentaoxooctadecahydro-1H,5H,14H,19H-pyrido[2,1-i]dipyrrolo[2,1-c:2′,1′-1][1]oxa[4,7,10,13]tetraazacyclohexadecin-20-yl)amino)-1-oxo-3-phenylpropan-2-yl)pent-2-enamide. ADEP 2591 is 5-(3-(3-((6S,9S,11aS,17S,20aS)-6,10-dimethyl-5,8,11,16,20-pentaoxo-17-((S)-2-((E)-pent-2-enamido)-3-phenylpropanamido)hexadecahydro-1H,5H,16H-dipyrrolo[2,1-c:2′,1′-1][1]oxa[4,7,10,13]tetraazacyclohexadecin-9-yl)propyl)thioureido)-2-(6-(dimethylamino)-3-(dimethyliminio)-3H-xanthen-9-yl)benzoate.
(In general: In fluorescence polarisation assays a small probe gives low polarisation when free and higher when bound to something large.)

For the molecule `CCc1ccc(NC(=O)N[C@@H](Cc2cccc(C)c2)C(=O)N[C@H]2COC(=O)[C@@H]3C[C@@H](C)CN3C(=O)[C@H](C)NC(=O)[C@@H]3CN(C)CCN3C(=O)[C@@H]3CCCN3C2=O)cc1` [Compound 16, (S)-2-(3-(4-ETHYLPHENYL)UREIDO)-3-(M-TOLYL)-N-((6AS,12S,15AS,17R,21S,23AS)-2,17,21-TRIMETHYL-6,11,15,20,23-PENTAOXOOCTADECAHYDRO-2H,6H,11H,15H-PYRAZINO[2,1-I]DIPYRROLO[2,1-C:2′,1′-L][1]OXA[4,7,10,13]TETRAAZACYCLOHEXADECIN-12-YL)PROPANAMIDE] ({NH(4-Et-phenyl)-CO}-[Phe(3-Me)]SP[Piperazine(2S-CO,4-Me)]A[Pro(4R-Me)]; ester 2-C), the “Minimal Inhibitory Concentrations (μM) S. aureus ΔClpP” value in series [1] is greater than 20 µM. This molecule yielded a Human in series [2] of 98.5 ± 0.3%. Besides, the IC50 in series [3] came to 5.46 ± 0.2 µM.
For `Cc1cccc(C[C@H](NC(=O)Nc2ccc3c(c2)OCO3)C(=O)N[C@H]2COC(=O)[C@@H]3C[C@@H](C)CN3C(=O)[C@H](C)NC(=O)[C@@H]3CN(C)CCN3C(=O)[C@@H]3CCCN3C2=O)c1` [Compound 17, (S)-2-(3-(BENZO[D][1,3]DIOXOL-5-YL)UREIDO)-3-(M-TOLYL)-N-((6AS,12S,15AS,17R,21S,23AS)-2,17,21-TRIMETHYL-6,11,15,20,23-PENTAOXOOCTADECAHYDRO-2H,6H,11H,15H-PYRAZINO[2,1-I]DIPYRROLO[2,1-C:2′,1′-L][1]OXA[4,7,10,13]TETRAAZACYCLOHEXADECIN-12-YL)PROPANAMIDE] ({NH(1,3-benzodioxol-5-yl)-CO}-[Phe(3-Me)]SP[Piperazine(2S-CO,4-Me)]A[Pro(4R-Me)]; ester 2-C), in that order: greater than 20 µM, 95.4 ± 1.1% and 6.02 ± 0.2 µM.
In the same order, the values of `C[C@@H]1C[C@H]2C(=O)OC[C@H](NC(=O)[C@H](Cc3cccc(C(F)(F)F)c3)NC(=O)Nc3ccc(Cl)cc3F)C(=O)N3CCC[C@H]3C(=O)N3CCN(C)C[C@H]3C(=O)N[C@@H](C)C(=O)N2C1` [Compound 18, (S)-2-(3-(4-CHLORO-2-FLUOROPHENYL)UREIDO)-3-(3-(TRIFLUOROMETHYL)PHENYL)-N-((6AS,12S,15AS,17R,21S,23AS)-2,17,21-TRIMETHYL-6,11,15,20,23-PENTAOXOOCTADECAHYDRO-2H,6H,11H,15H-PYRAZINO[2,1-I]DIPYRROLO[2,1-C:2′,1′-L][1]OXA[4,7,10,13]TETRAAZACYCLOHEXADECIN-12-YL)PROPANAMIDE] ({NH(4-Cl-2-F-phenyl)-CO}-[Phe(3-CF3)]SP[Piperazine(2S-CO,4-Me)]A[Pro(4R-Me)]; ester 2-C) are greater than 20 µM, 99.0 ± 0.1% and 4.79 ± 0.27 µM.
`COc1cccc(C[C@H](NC(=O)Nc2ccc(Cl)cc2F)C(=O)N[C@H]2COC(=O)[C@@H]3C[C@@H](C)CN3C(=O)[C@H](C)NC(=O)[C@@H]3CN(C)CCN3C(=O)[C@@H]3CCCN3C2=O)c1` [Compound 19, (S)-2-(3-(4-CHLORO-2-FLUOROPHENYL)UREIDO)-3-(3-METHOXYPHENYL)-N-((6AS,12S,15AS,17R,21S,23AS)-2,17,21-TRIMETHYL-6,11,15,20,23-PENTAOXOOCTADECAHYDRO-2H,6H,11H,15H-PYRAZINO[2,1-I]DIPYRROLO[2,1-C:2′,1′-L][1]OXA[4,7,10,13]TETRAAZACYCLOHEXADECIN-12-YL)PROPANAMIDE] ({NH(4-Cl-2-F-phenyl)-CO}-[Phe(3-OMe)]SP[Piperazine(2S-CO,4-Me)]A[Pro(4R-Me)]; ester 2-C): the “Minimal Inhibitory Concentrations (μM) S. aureus ΔClpP” value in series [1] was greater than 20 µM. For the same molecule, the Human in series [2] is 98.9 ± 0.2%. In series [3], this molecule showed an IC50 of 6.05 ± 0.3 µM.
For `Cc1cccc(C[C@H](NC(=O)Nc2ccc(Cl)cc2F)C(=O)N[C@@H]2C(=O)N3CCC[C@H]3C(=O)N3CC(=O)NC[C@H]3C(=O)N[C@@H](C)C(=O)N3C[C@H](C)C[C@H]3C(=O)O[C@H]2C)c1` [Compound 20, (S)-2-(3-(4-CHLORO-2-FLUOROPHENYL)UREIDO)-3-(M-TOLYL)-N-((6AS,12S,13S,15AS,17R,21S,23AS)-13,17,21-TRIMETHYL-3,6,11,15,20,23-HEXAOXOOCTADECAHYDRO-2H,6H,11H,15H-PYRAZINO[2,1-I]DIPYRROLO[2,1-C:2′,1′-L][1]OXA[4,7,10,13]TETRAAZACYCLOHEXADECIN-12-YL)PROPANAMIDE] ({NH(4-Cl-2-F-phenyl)-CO}-[Phe(3-Me)][aThr]P[X4]A[Pro(4R-Me)]; ester 2-C), in that order: greater than 20 µM, 97.5 ± 0.2% and 4.21 ± 0.2 µM.
Consider `Cc1cccc(C[C@H](NC(=O)Nc2ccc3c(c2)OCCO3)C(=O)N[C@@H]2C(=O)N3CCC[C@H]3C(=O)N3CCCC[C@H]3C(=O)N[C@@H](C)C(=O)N3C[C@H](C)C[C@H]3C(=O)O[C@H]2C)c1` [Compound 21, (S)-2-(3-(2,3-DIHYDROBENZO[B][1,4]DIOXIN-6-YL)UREIDO)-3-(M-TOLYL)-N-((2R,6S,8AS,14AS,20S,21S,23AS)-2,6,21-TRIMETHYL-5,8,14,19,23-PENTAOXOOCTADECAHYDRO-1H,5H,14H,19H-PYRIDO[2,1-I]DIPYRROLO[2,1-C:2′,1′-L][1]OXA[4,7,10,13]TETRAAZACYCLOHEXADECIN-20-YL)PROPANAMIDE] ({X3-CO}-[Phe(3-Me)][aThr]P[Pip]A[Pro(4R-Me)]; ester 2-C), for which the “Minimal Inhibitory Concentrations (μM) S. aureus ΔClpP” value in series [1] was greater than 20 µM. Moreover, the Human in series [2] came to 97.3 ± 0.1%. The IC50 in series [3] stood at 3.74 ± 0.24 µM.
As for `Cc1cccc(C[C@H](NC(=O)Nc2ccc3c(c2)OCCO3)C(=O)N[C@H]2COC(=O)[C@@H]3C[C@@H](C)CN3C(=O)[C@H](C)NC(=O)[C@@H]3CCCCN3C(=O)[C@@H]3CCCN3C2=O)c1` [Compound 22, (S)-2-(3-(2,3-DIHYDROBENZO[B][1,4]DIOXIN-6-YL)UREIDO)-N-((2R,6S,8AS,14AS,20S,23AS)-2,6-DIMETHYL-5,8,14,19,23-PENTAOXOOCTADECAHYDRO-1H,5H,14H,19H-PYRIDO[2,1-I]DIPYRROLO[2,1-C:2′,1′-L][1]OXA[4,7,10,13]TETRAAZACYCLOHEXADECIN-20-YL)-3-(M-TOLYL)PROPANAMIDE], the “Minimal Inhibitory Concentrations (μM) S. aureus ΔClpP” value in series [1] is greater than 20 µM. In addition, in series [2], the Human amounted to 97.1 ± 0.2%. For the same molecule, the IC50 in series [3] was 4.12 ± 0.29 µM.
For `Cc1cccc(C[C@H](NC(=O)Nc2ccc3c(c2)OCO3)C(=O)N[C@H]2COC(=O)[C@@H]3C[C@@H](C)CN3C(=O)[C@H](C)NC(=O)[C@@H]3CCCCN3C(=O)[C@@H]3CCCN3C2=O)c1` [Compound 23, (S)-2-(3-(BENZO[D][1,3]DIOXOL-5-YL)UREIDO)-N-((2R,6S,8AS,14AS,20S,23AS)-2,6-DIMETHYL-5,8,14,19,23-PENTAOXOOCTADECAHYDRO-1H,5H,14H,19H-PYRIDO[2,1-I]DIPYRROLO[2,1-C:2′,1′-L][1]OXA[4,7,10,13]TETRAAZACYCLOHEXADECIN-20-YL)-3-(M-TOLYL)PROPANAMIDE], in that order: greater than 20 µM, 97.1 ± 0.2% and 1.96 ± 0.12 µM.
For `CCc1ccc(NC(=O)N[C@@H](Cc2cccc(C)c2)C(=O)N[C@@H]2C(=O)N3C[C@H](O)C[C@H]3C(=O)N3CCOC[C@H]3C(=O)N[C@@H](C)C(=O)N3C[C@H](C)C[C@H]3C(=O)O[C@H]2C)cc1` [Compound 24, (S)-2-(3-(4-ETHYLPHENYL)UREIDO)-N-((6AS,8R,12S,13S,15AS,17R,21S,23AS)-8-HYDROXY-13,17,21-TRIMETHYL-6,11,15,20,23-PENTAOXOOCTADECAHYDRO-6H,11H,15H-[1,4]OXAZINO[3,4-I]DIPYRROLO[2,1-C:2′,1′-L][1]OXA[4,7,10,13]TETRAAZACYCLOHEXADECIN-12-YL)-3-(M-TOLYL)PROPANAMIDE] ({NH(4-Et-phenyl)-CO}-[Phe(3-Me)][aThr][Hyp][Morpholine(3S-CO)]A[Pro(4R-Me)]; ester 2-C), in that order: greater than 20 µM, 97.7 ± 0.2% and 2.31 ± 0.2 µM.
